Values after ≈ are worked out from the molar mass of the structure shown.
Tests used:
[1] = system: Ofloxacin-resistant Staphylococcus aureus; assay: In vitro anti-bacterial activity (MIC90), ophthalmologic clinical bacteria isolates; assay type: cell-based; conditions: antibiotic-resistant organisms
[2] = system: Gentamycin-resistant Staphylococcus aureus; assay: as above; assay type: cell-based; conditions: antibiotic-resistant organisms
Moraxella species = assay: as above; assay type: cell-based; conditions: Gram-negative
S. aureus (ATCC 29213) = assay: MICs of compound having Formula IV and ciprofloxacin alone and in combination; assay type: cell-based; conditions: Staphylococcus aureus, ATCC29213, alone, read-out: MIC, drug alone
Protocol: (§1) Compositions having various combinations of concentrations of compound having Formula IV and cirprofloxacin were tested systematically against S. aureus, P. aeruginosa, and E. coli.

E. coli (ATCC 25922) = assay: as above; assay type: cell-based; conditions: Escherichia coli, ATCC25922, alone, read-out: MIC, drug alone
Protocol: as §1

[3] = system: P. aeruginosa (ATCC 27853); assay: as above; assay type: cell-based; conditions: Pseudomonas aeruginosa, ATCC27853, alone, read-out: MIC, drug alone
Protocol: as §1

Corynebacterium species = assay: In vitro anti-bacterial activity (MIC90), ophthalmologic clinical bacteria isolates; assay type: cell-based; conditions: Gram-positive
Text: As disclosed above, most of these bacteria strains are also relevant to infections of the ear and upper respiratory tract.

Propionibacterium acnes = assay: as above; assay type: cell-based; conditions: Cutibacterium acnes, Gram-positive
Staphylococcus aureus = assay: as above; assay type: cell-based; conditions: Gram-positive
[4] = system: Coagulase-negative Staphylococcus; assay: as above; assay type: cell-based; conditions: Gram-positive
[5] = Stability of the compound having Formula IV in solution; assay type: physicochemical; conditions: for remaining amount of the compound in solution: initial concentration 100 μg/ml
Text: The stability of the compound having Formula IV in solution is shown in Table 7, as the remaining amount (expressed as the percentage of the initial amount) of the compound after selected times. The compound is stable in the pH range of most interest for the present invention.

Escherichia coli (O-1) = assay: In vitro anti-bacterial activity (MIC90), Gram-negative bacteria; assay type: cell-based; conditions: Gram-negative reference strain
Protocol: (§2) In yet another aspect, said another quinolone has a MIC90 value for a Gram-negative bacterium that is lower than that of the fluoroquinolone having Formula I, II, III, IV, V, VI, VII, or VIII for the same bacterium, said fluoroquinolone being included in the composition. MIC90 is the minimum concentration of the active compound required to inhibit ninety percent of the growth of a specified pathogen, in μg/ml.
(§3) Anti-bacterial activity of the compound having Formula IV was tested against several Gram-negative reference bacteria strains and compared to the anti-bacterial activity of three commercially available antibiotics (nadifloxacin, ofloxacin, and sparfloxacin). The results are shown in Table 2 as MIC90 values (minimum concentration of the active compound required to inhibit ninety percent of the growth of a specified pathogen, in μg/ml).

Shigella flexneri (2b) = assay: as above; assay type: cell-based; conditions: Gram-negative reference strain
Protocol: as §2, §3

Proteus rettgeri = assay: as above; assay type: cell-based; conditions: Providencia rettgeri, Gram-negative reference strain
Protocol: as §2, §3

[6] = system: Pseudomonas aeruginosa (IFO 13736); assay: as above; assay type: cell-based; conditions: IFO13736, Gram-negative reference strain
Protocol: as §2, §3

[7] = system: Klebsiella pneumoniae (IFO 13541); assay: as above; assay type: cell-based; conditions: IFO13541, Gram-negative reference strain
Protocol: as §2, §3

[8] = system: Pseudomonas aeruginosa (ATCC 27853); assay: as above; assay type: cell-based; conditions: ATCC27853, Gram-negative reference strain
Protocol: as §2, §3

[9] = system: Serratia marcenscens (NHL); assay: as above; assay type: cell-based; conditions: Gram-negative reference strain
Protocol: as §2, §3

[10] = system: Acinetobacter calcoaceticus (IFO 12552); assay: as above; assay type: cell-based; conditions: IFO12552, Gram-negative reference strain
Protocol: as §2, §3

[11] = system: Proteus mirabilis (IFO 13300); assay: as above; assay type: cell-based; conditions: IFO13300, Gram-negative reference strain
Protocol: as §2, §3

[12] = system: Enterobacter aerogenes (IFO 13534); assay: as above; assay type: cell-based; conditions: Klebsiella aerogenes, IFO13534, Gram-negative reference strain
Protocol: as §2, §3

[13] = system: Gentamycin-resistant Pseudomonas aeruginosa; assay: In vitro anti-bacterial activity (MIC90), ophthalmologic clinical bacteria isolates; assay type: cell-based; conditions: antibiotic-resistant organisms
Haemophilus influenzae = assay: as above; assay type: cell-based; conditions: Gram-negative
Streptococcus pneumoniae = assay: as above; assay type: cell-based; conditions: Gram-positive
[14] = system: Penicillin-resistant Streptococcus pneumoniae; assay: as above; assay type: cell-based; conditions: antibiotic-resistant organisms
Pseudomonas aeruginosa = assay: as above; assay type: cell-based; conditions: Gram-negative
[15] = system: Veillonella parvula (GAI 5602); assay: In vitro anti-bacterial activity (MIC90), anaerobic bacteria; assay type: cell-based; conditions: anaerobic reference bacteria
[16] = system: Clostridium perfringens (KZ 210); assay: microbe, parasite or virus in culture; assay type: cell-based
[17] = system: Propionibacterium acnes (ATCC 11828); assay: In vitro anti-bacterial activity (MIC90), anaerobic bacteria; assay type: cell-based; conditions: Cutibacterium acnes, ATCC11828, anaerobic reference bacteria

N[C@@H]1CCCCN(c2c(F)cc3c(=O)c(C(=O)O)cn(C4CC4)c3c2Cl)C1 [Compound Having Formula IV]
MIC90 [1]: 8 mg/L | MIC90 [2]: 4 mg/L | MIC90 (Moraxella species): 0.13 mg/L | MIC (S. aureus (ATCC 29213)): 0.03 mg/L | MIC (E. coli (ATCC 25922)): 0.12 mg/L | MIC [3]: 4 mg/L | MIC90 (Corynebacterium species): 2 mg/L | MIC90 (Propionibacterium acnes): 0.25 mg/L | MIC90 (Staphylococcus aureus): 1 mg/L | MIC90 [4]: 0.5 mg/L | remaining amount of the compound in solution ([5]; pH 3.5, 0 week): 100 percentage of the initial amount | remaining amount of the compound in solution ([5]; pH 3.5, 2 weeks): 99.0 percentage of the initial amount | remaining amount of the compound in solution ([5]; pH 3.5, 4 weeks): 98.8 percentage of the initial amount | remaining amount of the compound in solution ([5]; pH 4.0, 0 week): 100 percentage of the initial amount | remaining amount of the compound in solution ([5]; pH 4.0, 2 weeks): 98.5 percentage of the initial amount | remaining amount of the compound in solution ([5]; pH 4.0, 4 weeks): 98.4 percentage of the initial amount | remaining amount of the compound in solution ([5]; pH 4.5, 0 week): 100 percentage of the initial amount | remaining amount of the compound in solution ([5]; pH 4.5, 2 weeks): 98.4 percentage of the initial amount | remaining amount of the compound in solution ([5]; pH 4.5, 4 weeks): 98.4 percentage of the initial amount | remaining amount of the compound in solution ([5]; pH 5.0, 0 week): 100 percentage of the initial amount | remaining amount of the compound in solution ([5]; pH 5.0, 2 weeks): 98.2 percentage of the initial amount | remaining amount of the compound in solution ([5]; pH 5.0, 4 weeks): 98.8 percentage of the initial amount | remaining amount of the compound in solution ([5]; pH 5.5, 0 week): 100 percentage of the initial amount | remaining amount of the compound in solution ([5]; pH 5.5, 2 weeks): 96.8 percentage of the initial amount | remaining amount of the compound in solution ([5]; pH 5.5, 4 weeks): 96.8 percentage of the initial amount | remaining amount of the compound in solution ([5]; pH 6.0, 0 week): 100 percentage of the initial amount | remaining amount of the compound in solution ([5]; pH 6.0, 2 weeks): 96.3 percentage of the initial amount | remaining amount of the compound in solution ([5]; pH 6.0, 4 weeks): 98.0 percentage of the initial amount | remaining amount of the compound in solution ([5]; pH 6.5, 0 week): 100 percentage of the initial amount | remaining amount of the compound in solution ([5]; pH 6.5, 2 weeks): 95.3 percentage of the initial amount | remaining amount of the compound in solution ([5]; pH 6.5, 4 weeks): 95.6 percentage of the initial amount | stability in solution (in words) ([5]; pH range of most interest for the present invention): stable | MIC90 (Escherichia coli (O-1)): 0.1 mg/L | MIC90 (Shigella flexneri (2b)): 0.006 mg/L | MIC90 (Proteus rettgeri): 0.39 mg/L | MIC90 [6]: 1.56 mg/L | MIC90 [7]: 0.024 mg/L | MIC90 [8]: 1.56 mg/L | MIC90 [9]: 0.2 mg/L | MIC90 [10]: 0.39 mg/L | MIC90 [11]: 0.1 mg/L | MIC90 [12]: 0.39 mg/L | MIC90 [13]: 32 mg/L | MIC90 (Haemophilus influenzae): ≤ 0.06 mg/L | MIC90 (Streptococcus pneumoniae): 0.13 mg/L | MIC90 [14]: 0.13 mg/L | MIC90 (Pseudomonas aeruginosa): 4 mg/L | MIC90 [15]: 0.1 mg/L | MIC90 [16]: 0.2 mg/L | MIC90 [17]: 0.39 mg/L

CC1CCc2c(N3CCC(O)CC3)c(F)cc3c(=O)c(C(=O)O)cn1c23 (centres unmarked) [Nadifloxacin, nadifloxacin]
MIC90 (Escherichia coli (O-1)): 0.2 mg/L (≈ 0.555 µM) | MIC90 (Shigella flexneri (2b)): 0.006 mg/L (≈ 0.0166 µM) | MIC90 (Proteus rettgeri): 0.39 mg/L (≈ 1.08 µM) | MIC90 [6]: 3.13 mg/L (≈ 8.69 µM) | MIC90 [7]: 0.1 mg/L (≈ 0.277 µM) | MIC90 [8]: 6.25 mg/L (≈ 17.3 µM) | MIC90 [9]: 1.56 mg/L (≈ 4.33 µM) | MIC90 [10]: 0.78 mg/L (≈ 2.16 µM) | MIC90 [11]: 0.1 mg/L (≈ 0.277 µM) | MIC90 [12]: 1.56 mg/L (≈ 4.33 µM) | MIC90 [15]: 0.78 mg/L (≈ 2.16 µM) | MIC90 [16]: 0.2 mg/L (≈ 0.555 µM) | MIC90 [17]: 0.78 mg/L (≈ 2.16 µM)

CC1COc2c(N3CCN(C)CC3)c(F)cc3c(=O)c(C(=O)O)cn1c23 (centres unmarked) [Ofloxacin, ofloxacin]
MIC90 [1]: > 128 mg/L | MIC90 [2]: 128 mg/L (≈ 354 µM) | MIC90 (Moraxella species): 0.13 mg/L (≈ 0.36 µM) | MIC90 (Corynebacterium species): 32 mg/L (≈ 88.6 µM) | MIC90 (Propionibacterium acnes): 1 mg/L (≈ 2.77 µM) | MIC90 (Staphylococcus aureus): 32 mg/L (≈ 88.6 µM) | MIC90 [4]: 8 mg/L (≈ 22.1 µM) | MIC90 (Escherichia coli (O-1)): 0.05 mg/L (≈ 0.138 µM) | MIC90 (Shigella flexneri (2b)): 0.006 mg/L (≈ 0.0166 µM) | MIC90 (Proteus rettgeri): 0.2 mg/L (≈ 0.553 µM) | MIC90 [6]: 1.56 mg/L (≈ 4.32 µM) | MIC90 [7]: 0.024 mg/L (≈ 0.0664 µM) | MIC90 [8]: 3.13 mg/L (≈ 8.66 µM) | MIC90 [9]: 0.1 mg/L (≈ 0.277 µM) | MIC90 [10]: 0.39 mg/L (≈ 1.08 µM) | MIC90 [11]: 0.05 mg/L (≈ 0.138 µM) | MIC90 [12]: 0.2 mg/L (≈ 0.553 µM) | MIC90 [13]: 64 mg/L (≈ 177 µM) | MIC90 (Haemophilus influenzae): ≤ 0.06 mg/L | MIC90 (Streptococcus pneumoniae): 2 mg/L (≈ 5.53 µM) | MIC90 [14]: 2 mg/L (≈ 5.53 µM) | MIC90 (Pseudomonas aeruginosa): 4 mg/L (≈ 11.1 µM) | MIC90 [15]: 0.39 mg/L (≈ 1.08 µM) | MIC90 [16]: 0.78 mg/L (≈ 2.16 µM) | MIC90 [17]: 1.56 mg/L (≈ 4.32 µM)

C[C@@H]1CN(c2c(F)c(N)c3c(=O)c(C(=O)O)cn(C4CC4)c3c2F)C[C@H](C)N1 [Sparfloxacin, sparfloxacin]
MIC90 (Escherichia coli (O-1)): 0.012 mg/L (≈ 0.0306 µM) | MIC90 (Shigella flexneri (2b)): 0.006 mg/L (≈ 0.0153 µM) | MIC90 (Proteus rettgeri): 0.2 mg/L (≈ 0.51 µM) | MIC90 [6]: 0.78 mg/L (≈ 1.99 µM) | MIC90 [7]: 0.012 mg/L (≈ 0.0306 µM) | MIC90 [8]: 0.78 mg/L (≈ 1.99 µM) | MIC90 [9]: 0.2 mg/L (≈ 0.51 µM) | MIC90 [10]: 0.024 mg/L (≈ 0.0612 µM) | MIC90 [11]: 0.1 mg/L (≈ 0.255 µM) | MIC90 [12]: 0.1 mg/L (≈ 0.255 µM) | MIC90 [15]: 0.2 mg/L (≈ 0.51 µM) | MIC90 [16]: 0.39 mg/L (≈ 0.994 µM) | MIC90 [17]: 0.78 mg/L (≈ 1.99 µM)

Reference: patent US20090082337A1, “Compositions Comprising Quinolone and Methods for Treating or Controlling Infections” (priority 2007, published 2009)
